We go through 5 compounds from patent US20080287396A1, “Phosphonated Fluoroquinolones, Antibacterial Analogs Thereof, and Methods for the Prevention and Treatment of Bone and Joint Infections” (TARGANTA THERAPEUTICA INC., priority 2005, published 2008).

Converted amounts (≈) assume the structure as drawn.

Data set [1] is described as follows: Regeneration of drug from bone powder-bound prodrug. It is filed as in vitro ADME. As for the experimental part: Amounts of drug “regenerated” from the phosphonated parent prodrug were measured as follows. Washed bone powder-bound prodrugs from the above section were resuspended in 400 μL PBS or in 400 μL 50% (v/v in PBS) human or rat serum. […] Methanol (5× volume relative to supernatant) was added to each supernatant and the mixture was vortexed on a floor model vortex for 15 min to extract freed fluoroquinolone. The mixture was then centrifuged at 10 000 rpm for 15 min to pellet the insoluble material. The supernatant containing the extracted fluoroquinolone was recovered and evaporated to dryness in a speed vac. The dried pellets were resuspended in PBS and the amount of fluoroquinolone was determined by fluorescence measurements as described above. The percentage of drug regenerated was deduced from the difference between amount of bound prodrug and the amount of regenerated drug. The identity of regenerated drug was deduced by MIC determination; MICs of regenerated material matched those of parent drugs but not those of prodrugs.

In data set [2] the test system is S. aureus strains ATCC13709 and RN4220. The data set can be described thus: Susceptibility testing (MIC) in the presence of serum. To be noted: Staphylococcus aureus. It is filed as cell-based. On the procedure: (§1) Susceptibility of S. aureus strains ATCC13709 and RN4220 to the commercial antibiotics and synthesized compounds was determined by following the guidelines set by the Clinical and Laboratory Standards Institute (formerly the National Committee for Clinical Laboratory Standards) (M26-A). Compounds were diluted two-fold serially in DMSO and transferred to cation-adjusted Mueller Hinton broth (CAMHB; Becton Dickinson). 50 μL of compounds diluted in CAMHB was mixed with 100 μL of bacteria diluted in CAMHB in 96-well microtiter plates. The final number of micro-organisms in the assay was 5×10^5 c.f.u. per mL and the final concentration of DMSO in the assay was 1.25%. Assays were set up in duplicate and incubated at 37° C. for 18 h. The concentration of compound that inhibited visible growth was reported as the minimum inhibitory concentration (MIC).
Susceptibility testing experiments were also carried out in the presence of serum. These experiments were carried out similar to the susceptibility testing with the following modifications. 75 μL of compounds diluted in CAMHB was mixed with 75 μL of bacteria diluted in 100% serum from any given source (commercial pooled mouse serum (MS) and human serum (HS), Equitech-Bio Inc.) or diluted in 8% purified human serum albumin (HSA) (Calbiochem). […]

Data set [3] shares this test system. Kind of data set: microbe, parasite or virus in culture. It is filed as cell-based. To be noted: Staphylococcus aureus, read-out: minimum inhibitory concentration (MIC). As for the experimental part:
as §1

Data set [4] in a line: Bone powder binding, fluorometric detection. To be noted: 1 mg/ml compound, bone meal powder 10 mg/ml in PBS, 37° C., 1 h. The procedure, abridged: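 LC/MS method: 100 μM compound in 0.1 M Tris-HCl pH 7, 0.15 M NaCl shaken 10 min with or without ground rat tibia, centrifuged, unbound compound measured in supernatant. Fluorometric method: 1 mg/ml compound in 10 mg/ml bone meal/PBS, 1 h at 37 °C, pellet washed. Supernatant fluoroquinolone read at 280/465 nm; bound amount taken as input minus recovered.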

Data set [5] is described as follows: Bone powder binding, LC/MS detection. To be noted: 100 μM compound, Tris-HCl pH 7, 0.15M NaCl, ground rat tibia bone, 10 min. As for the experimental part: The ability of the example molecules to bind to bone powder was established in two parallel fashions, using either LC/MS or fluorometric detection. For LC/MS detection, a stock solution (5 mM) of the compound to be tested was added to 0.1M Tris-HCl buffer pH 7, 0.15M NaCl to reach a final concentration of 100 μM. Triplicate samples (1 mL) of the compound solutions were intensively shaken for 10 min with or without 25 mg of fresh or 20 mg of vacuum dried ground rat tibia bone. The samples were then centrifuged for 15 min at 10 000 g. The presence of unbound compound was measured by injection of 30 μL of each of the supernatants into an Agilent 1100™ LC/UV system. For fluorometric detection, an individual compound was dissolved in PBS or water (compound 52) and resuspended at a concentration of 1 mg/ml in a slurry of bone meal powder (Now Foods, Bloomingdale, Ill., USA) in PBS at 10 mg/ml. The suspension of drug/prodrug in bone meal powder was incubated at 37° C. for 1 h to allow for binding, and centrifuged at 13 000 rpm for 2 min, before recovering the supernatant. The bone meal powder pellet was then washed three times with 1 ml of PBS. All supernatants were saved and assessed for fluoroquinolone content by fluorescence measurements at excitation/emission wavelengths of 280/465 nm. The amount of fluoroquinolone was determined from standard curves generated for each experiment. Amount of drug/prodrug bound to bone powder was deduced from the difference between the input amount (typically 1 mg) and the amount recovered in the supernatants after binding. In all binding experiments, >99% of input drug was recovered in the supernatant for the parent drugs.

In another data set the test system is Hela cells. The data set can be described thus: Cytotoxicity assay (MTS reduction). As to conditions: concentrations up to 100 μM, 18 h, MTS reagent; data not shown. It is filed as cell-based. As for the experimental part: Selected compounds were also tested for their ability to inhibit growth of mammalian cells so as to ascertain levels of cytotoxicity to the mammalian host, via an assay measuring the biological reduction of the inner salt of (3-(4,5-dimethylthiazol-2-yl)-5-(3-carboxymethoxyphenyl)-2-(4-sulfophenyl)-2H-tetrazolium (MTS reagent). Assays were performed in 96-well microtiter plates. Briefly, compounds at 100, 50, 25, and 12.5 μM concentrations were incubated with 2×10^4 Hela cells per well in Dulbecco's Modified Eagle Medium (Invitrogen Corporation) containing 1% Bovine Growth Serum (HyClone) for 18 h at 37° C. under 5% CO2.

Another data set relates to S. aureus ATCC 13709. The data set can be described thus: Prophylactic model of bone infection in rats. It is filed as in vivo, rat. The procedure, abridged: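 Female CD rats (n=5/group) given intra-tibial 5% sodium morrhuate then S. aureus (ca. 5×10^5 CFU/rat), hole sealed with dental cement. Prodrugs given as single IV bolus in 0.9% saline at various times before infection; parent at molar equivalent dose. Tibiae harvested 24 h postinfection; Log CFU/g bone, detection limit 2 Log CFU/g.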

Setting [6] is: ATCC13709, CAMHB, 37° C., 18 h, data not shown.

With `COc1c(N2C[C@@H]3CCCN[C@@H]3C2)c(F)cc2c(=O)c(C(=O)OCCCCC(P(=O)(O)O)P(=O)(O)O)cn(C3CC3)c12` [Compound 25, 5,5-bisphosphonopentyl 7-((4aS,7aS)-octahydropyrrolo[3,4-b]pyridin-6-yl)-1-cyclopropyl-6-fluoro-1,4-dihydro-8-methoxy-4-oxoquinoline-3-carboxylate], in data set [1] (7 days, medium not stated), the “drug released from the bone matter after 7 days of incubation, in words” value is listed as “signs of drug release”. The MIC in data set [2] (ATCC13709, in serum (kind not stated), read-out: MIC in serum) was determined as 32 µg/mL; in data set [3] (setting [6]), 32 µg/mL (≈ 50.7 µM). In data set [4], the “Binding to bone (%) Fluorescence” value is 92.7%. Besides, the “Binding to bone (%) LC/MS” value in data set [5] was 87.6 ± 11.5%.
For the compound `CCOP(=O)(OCC)C(CCCCOC(=O)c1cn(C2CC2)c2c(OC)c(N3C[C@@H]4CCCN[C@@H]4C3)c(F)cc2c1=O)P(=O)(OCC)OCC.O=C(O)C(F)(F)F` [Compound 26, 5,5-bis(diethylphosphono)pentyl 7-((4aS,7aS)-octahydropyrrolo[3,4-b]pyridin-6-yl)-1-cyclopropyl-6-fluoro-1,4-dihydro-8-methoxy-4-oxoquinoline-3-carboxylate, trifluoroacetate salt], the MIC in data set [2] (ATCC13709, read-out: MIC in the presence of 50% mouse serum in the medium) was determined as 0.5 µg/mL; in data set [3] (ATCC13709, 18 h), 32 µg/mL. For the same compound, the cytotoxicity entry in the data set with Hela cells was “no signs of any cytotoxicity”.
For `COc1c(N2CCN(C(=O)OC(C)OC(=O)CCCC(P(=O)(O)O)P(=O)(O)O)C(C)C2)c(F)cc2c(=O)c(C(=O)O)cn(C3CC3)c12` (centres unmarked) [Compound 44], the “effect of the medium (presence or absence of serum) on regeneration rate” value in data set [1] (PBS vs serum) is given as “fairly similar rates”. Also, in data set [3] (setting [6]), the MIC lay within 1 to 8 µg/mL (≈ 1.41 to 11.3 µM). The “Binding to bone (%) Fluorescence” value in data set [4] was found to be 88.4%. Further, in the data set on S. aureus ATCC 13709 (20 mg/kg IV, 3 days prior to infection), the “Measured bacterial titer (Log CFU/g of bone) Test compound” value was 4.72 ± 0.83 Log CFU/g of bone. Further, the “prophylactic effect in rat model of bone infection, in words” value in the data set on S. aureus ATCC 13709 (Table 4 and FIGS. 6-8, doses as in Table 4) is given as “unable to produce a positive result in vivo”.
With `COc1c(N2CCNC(C)C2)c(F)cc2c(=O)c(C(=O)OCCCCC(P(=O)(O)O)P(=O)(O)O)cn(C3CC3)c12` (centres unmarked) [Compound 28, 5,5-bisphosphonopentyl 7-(3-methylpiperazin-1-yl)-1-cyclopropyl-6-fluoro-1,4-dihydro-8-methoxy-4-oxoquinoline-3-carboxylate], the cytotoxicity entry in the data set on Hela cells is “no signs of any cytotoxicity”. Further, the “Binding to bone (%) LC/MS” value in data set [5] worked out at 91.9 ± 5.5%.
For `COc1c(N2CCNC(C)C2)c(F)cc2c(=O)c(C(=O)OCCCC(P(=O)(O)O)P(=O)(O)O)cn(C3CC3)c12` (centres unmarked) [Compound 18, 4,4-bisphosphonobutyl 7-(3-methylpiperazin-1-yl)-1-cyclopropyl-6-fluoro-1,4-dihydro-8-methoxy-4-oxoquinoline-3-carboxylate], in the data set with Hela cells, the cytotoxicity result was “no signs of any cytotoxicity”. Further, in data set [5], the “Binding to bone (%) LC/MS” value amounted to 96.0 ± 2.4%.
